Measurements published in patent publication US20160002248A1, “GLS1 INHIBITORS FOR TREATING DISEASE” (Board of Regents, The University of Texas System, priority 2014, published 2016).

What was measured:
[1] = biological target: T1, purified recombinant human GAC (GLS1) (Homo sapiens, UniProt O94925); experiment: GLS1 Enzymatic Activity Assay (dual-coupled enzymatic assay); type: biochemical
T1 sequence (O94925 55-598 isoform O94925-3 limits assumed): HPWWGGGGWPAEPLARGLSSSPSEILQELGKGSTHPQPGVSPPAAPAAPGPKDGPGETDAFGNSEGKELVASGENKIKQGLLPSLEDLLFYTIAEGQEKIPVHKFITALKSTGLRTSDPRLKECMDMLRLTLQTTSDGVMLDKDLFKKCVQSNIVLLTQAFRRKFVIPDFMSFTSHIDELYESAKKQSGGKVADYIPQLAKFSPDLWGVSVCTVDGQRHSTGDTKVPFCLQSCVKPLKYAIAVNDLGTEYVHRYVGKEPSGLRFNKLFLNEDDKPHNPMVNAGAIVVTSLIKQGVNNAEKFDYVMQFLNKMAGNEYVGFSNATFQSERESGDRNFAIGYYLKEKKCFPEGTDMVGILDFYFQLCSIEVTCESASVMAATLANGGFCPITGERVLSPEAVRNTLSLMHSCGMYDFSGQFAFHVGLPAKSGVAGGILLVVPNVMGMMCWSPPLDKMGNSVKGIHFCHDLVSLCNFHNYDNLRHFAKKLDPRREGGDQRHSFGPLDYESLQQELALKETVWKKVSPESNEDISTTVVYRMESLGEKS
Method in brief: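 GAC activity measured by coupling glutamate to glutamate oxidase and HRP, generating resorufin from Amplex UltraRed. Enzyme (2 nM) preincubated with 50 mM potassium phosphate 10 min at room temperature, then inhibitor 10 min; 1 mM glutamine substrate, 1% DMSO. Fluorescence 530/590 nm, kinetic or 20-min endpoint; IC50 from four-parameter logistic fit.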

[2] = tested on: A549 cells; experiment: Proliferation Assay (A549 cell viability, Cell Titer Fluor); type: cell-based; details: Homo sapiens, 72 hours
Method in brief: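 Fluorescence read-out (Cell Titer Fluor, 30 min at 37 °C after reagent) after 72 h compound exposure of A549 cells; EC50 by four-parameter logistic curve fit. Cells: 1000/well, RPMI 1640 + 10% dialyzed FBS, 0.5% DMSO final.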

IC50 [1] [nM] | EC50 [2] [nM] | SMILES
100 to 500 | 500 to 5000 | O=C(NCC1CC1)c1nnc(CCCCc2cc3cc(Cc4ccccc4)[nH]c3nn2)s1 [Example 77, 5-(4-{6-benzyl-7H-pyrrolo[2,3-c]pyridazin-3-yl}butyl)-N-(cyclopropylmethyl)-1,3,4-thiadiazole-2-carboxamide]
100 to 500 | 500 to 5000 | CC(C)(CO)CNC(=O)c1nnc(CCCCc2cc3cc(Cc4ccccc4)[nH]c3nn2)s1 [Example 79, 5-(4-{6-benzyl-7H-pyrrolo[2,3-c]pyridazin-3-yl}butyl)-N-(3-hydroxy-2,2-dimethylpropyl)-1,3,4-thiadiazole-2-carboxamide]
100 to 500 | 500 to 5000 | NC(=O)c1nnc(CCCCc2cc3cc(Cc4ccccc4)[nH]c3nn2)s1 [Example 80, 5-(4-{6-benzyl-7H-pyrrolo[2,3-c]pyridazin-3-yl}butyl)-1,3,4-thiadiazole-2-carboxamide]
100 to 500 | 500 to 5000 | O=C(NCC1CCOC1)c1nnc(CCCCc2cc3cc(Cc4ccccc4)[nH]c3nn2)s1 (centres unmarked) [Example 82, 5-(4-{6-benzyl-7H-pyrrolo[2,3-c]pyridazin-3-yl}butyl)-N-(oxolan-3-ylmethyl)-1,3,4-thiadiazole-2-carboxamide]
100 to 500 | > 5000 | O=C(NCCC(F)(F)F)c1nnc(CCCCc2cc3cc(Cc4ccccc4)[nH]c3nn2)s1 [Example 83, 5-(4-{6-benzyl-7H-pyrrolo[2,3-c]pyridazin-3-yl}butyl)-N-(3,3,3-trifluoropropyl)-1,3,4-thiadiazole-2-carboxamide]
< 100 | 500 to 5000 | Cc1ccc(CNC(=O)c2cn(CCCCc3cc4c(F)c(C5CC5)[nH]c4nn3)nn2)cn1 [Example 90, 1-(4-(6-cyclopropyl-5-fluoro-7H-pyrrolo[2,3-c]pyridazin-3-yl)butyl)-N-((6-methylpyridin-3-yl)methyl)-1H-1,2,3-triazole-4-carboxamide 2,2,2-trifluoroacetate]
< 100 | 100 to 500 | Cc1ccc(CNC(=O)c2cn(CCCCc3cc4cc(C5CCN(C(=O)OC(C)(C)C)CC5)[nH]c4nn3)nn2)cn1 [Example 95, ten-butyl 4-{3-[4-(4-{[(6-methylpyridin-3-yl)methyl]carbamoyl}-1H-1,2,3-triazol-1-yl)butyl]-7H-pyrrolo[2,3-c]pyridazin-6-yl}piperidine-1-carboxylate]
< 100 | 100 to 500 | Cc1ccc(CNC(=O)c2cn(CCCCc3cc4c(C5CC5)c(C5CC5)[nH]c4nn3)nn2)cn1 [Example 96, 1-(4-(5,6-dicyclopropyl-7H-pyrrolo[2,3-c]pyridazin-3-yl)butyl)-N-((6-methylpyridin-3-yl)methyl)-1H-1,2,3-triazole-4-carboxamide]

The next lines start with the molecule.

SMILES | IC50 [1] [nM] | EC50 [2] [nM]
O=C(NCc1ccncc1)c1nnc(CCCCc2cc3cc(Cc4ccccc4)[nH]c3nn2)s1 [Example 75, 5-(4-{6-benzyl-7H-pyrrolo[2,3-c]pyridazin-3-yl}butyl)-N-(pyridin-4-ylmethyl)-1,3,4-thiadiazole-2-carboxamide] | 100 to 500 | 500 to 5000
O=C(NCc1cccnc1)c1nnc(CCCCc2cc3cc(Cc4ccccc4)[nH]c3nn2)s1 [Example 76, 5-(4-{6-benzyl-7H-pyrrolo[2,3-c]pyridazin-3-yl}butyl)-N-(pyridin-3-ylmethyl)-1,3,4-thiadiazole-2-carboxamide] | < 100 | 100 to 500
O=C(NCC1CCOCC1)c1nnc(CCCCc2cc3cc(Cc4ccccc4)[nH]c3nn2)s1 [Example 78, 5-(4-{6-benzyl-7H-pyrrolo[2,3-c]pyridazin-3-yl}butyl)-N-(oxan-4-ylmethyl)-1,3,4-thiadiazole-2-carboxamide] | 100 to 500 | 500 to 5000
O=C(NCC(F)(F)F)c1nnc(CCCCc2cc3cc(Cc4ccccc4)[nH]c3nn2)s1 [Example 81, 5-(4-{6-benzyl-7H-pyrrolo[2,3-c]pyridazin-3-yl}butyl)-N-(2,2,2-trifluoroethyl)-1,3,4-thiadiazole-2-carboxamide] | 100 to 500 | > 5000
COC(C)(C)CNC(=O)c1nnc(CCCCc2cc3cc(Cc4ccccc4)[nH]c3nn2)s1 [Example 84, 5-(4-{6-benzyl-7H-pyrrolo[2,3-c]pyridazin-3-yl}butyl)-N-(2-methoxy-2-methylpropyl)-1,3,4-thiadiazole-2-carboxamide] | 100 to 500 | 500 to 5000
O=C(NCc1ccccn1)c1cn(CCCCc2cc3cc(CC4CCCCC4)[nH]c3nn2)nn1 [Example 85, 1-(4-(6-(cyclohexylmethyl)-7H-pyrrolo[2,3-c]pyridazin-3-yl)butyl)-N-(pyridin-2-ylmethyl)-1H-1,2,3-triazole-4-carboxamide] | < 100 | < 100
CC(C)(O)c1ccc(CNC(=O)c2cn(CCCCc3cc4cc(C5CC5)[nH]c4nn3)nn2)cn1 [Example 86, 1-(4-{6-cyclopropyl-7H-pyrrolo[2,3-c]pyridazin-3-yl}butyl)-N-{[6-(2-hydroxypropan-2-yl)pyridin-3-yl]methyl}-1H-1,2,3-triazole-4-carboxamide] | < 100 | 100 to 500
CC(C)(O)c1cccc(CNC(=O)c2cn(CCCCc3cc4cc(C5CC5)[nH]c4nn3)nn2)n1 [Example 87, 1-(4-(6-cyclopropyl-7H-pyrrolo[2,3-c]pyridazin-3-yl)butyl)-N-((6-(2-hydroxypropan-2-yl)pyridin-2-yl)methyl)-1H-1,2,3-triazole-4-carboxamide] | 100 to 500 | 500 to 5000
CCOC(=O)c1cccc(CNC(=O)c2cn(CCCCc3cc4cc(C5CC5)[nH]c4nn3)nn2)n1 [Example 88, ethyl 6-({[1-(4-{6-cyclopropyl-7H-pyrrolo[2,3-c]pyridazin-3-yl}butyl)-1H-1,2,3-triazol-4-yl]formamido}methyl)pyridine-2-carboxylate] | < 100 | 500 to 5000
CC(C)(O)c1ccc(CNC(=O)c2cn(CCCCc3cc4c(Br)c(C5CC5)[nH]c4nn3)nn2)cn1 [Example 89, 1-(4-{5-bromo-6-cyclopropyl-7H-pyrrolo[2,3-c]pyridazin-3-yl}butyl)-N-{[6-(2-hydroxypropan-2-yl)pyridin-3-yl]methyl}-1H-1,2,3-triazole-4-carboxamide] | < 100 | 100 to 500
Cc1ccc(CNC(=O)c2cn(CCCCc3cc4c(I)c(C5CC5)[nH]c4nn3)nn2)cn1 [Example 91, 1-(4-{6-cyclopropyl-5-iodo-7H-pyrrolo[2,3-c]pyridazin-3-yl}butyl)-N-[(6-methylpyridin-3-yl)methyl]-1H-1,2,3-triazole-4-carboxamide] | < 100 | 100 to 500
Cc1ccc(CNC(=O)c2cn(CCCCc3cc4cc(Cc5ccccc5)[nH]c4nn3)nn2)cn1 [Example 92, 1-(4-{6-benzyl-7H-pyrrolo[2,3-c]pyridazin-3-yl}butyl)-N-[(6-methylpyridin-3-yl)methyl]-1H-1,2,3-triazole-4-carboxamide] | < 100 | 100 to 500
CC(C)(C)OC(=O)NCc1cccc(CNC(=O)c2cn(CCCCc3cc4cc(C5CC5)[nH]c4nn3)nn2)c1 [Example 93, tert-butyl N-{[3-({[1-(4-{6-cyclopropyl-7H-pyrrolo[2,3-c]pyridazin-3-yl}butyl)-1H-1,2,3-triazol-4-yl]formamido}methyl)phenyl]methyl}carbamate] | < 100 | < 100
Cc1ccc(CNC(=O)c2cn(CCCCc3cc4cc(C5CN(C(=O)OC(C)(C)C)C5)[nH]c4nn3)nn2)cn1 [Example 94, tert-butyl 3-{3-[4-(4-{[(6-methylpyridin-3-yl)methyl]carbamoyl}-1H-1,2,3-triazol-1-yl)butyl]-7H-pyrrolo[2,3-c]pyridazin-6-yl}azetidine-1-carboxylate] | < 100 | 100 to 500
Cc1ccc(CNC(=O)c2cn(CCCCc3cc4cc(C5CNC5)[nH]c4nn3)nn2)cn1 [Example 97, 1-{4-[6-(azetidin-3-yl)-7H-pyrrolo[2,3-c]pyridazin-3-yl]butyl}-N-[(6-methylpyridin-3-yl)methyl]-1H-1,2,3-triazole-4-carboxamide] | 100 to 500 | 500 to 5000
Cc1ccc(CNC(=O)c2cn(CCCCc3cc4cc(C5CCNCC5)[nH]c4nn3)nn2)cn1 [Example 98, N-[(6-methylpyridin-3-yl)methyl]-1-{4-[6-(piperidin-4-yl)-7H-pyrrolo[2,3-c]pyridazin-3-yl]butyl}-1H-1,2,3-triazole-4-carboxamide] | 500 to 5000 | > 5000
Cc1ccc(CNC(=O)c2cn(CCCCc3cc4cc(C5CCOCC5)[nH]c4nn3)nn2)cn1 [Example 99, N-[(6-methylpyridin-3-yl)methyl]-1-{4-[6-(oxan-4-yl)-7H-pyrrolo[2,3-c]pyridazin-3-yl]butyl}-1H-1,2,3-triazole-4-carboxamide] | 100 to 500 | 500 to 5000
